In one test the target is T1, A623E PfATP6 (Plasmodium falciparum, UniProt Q08853, A623E).
T1 construct: expressed in transfected cells; host or cells: Saccharomyces cerevisiae K667-derived strain
T1 sequence (Q08853 1-1228 A623E): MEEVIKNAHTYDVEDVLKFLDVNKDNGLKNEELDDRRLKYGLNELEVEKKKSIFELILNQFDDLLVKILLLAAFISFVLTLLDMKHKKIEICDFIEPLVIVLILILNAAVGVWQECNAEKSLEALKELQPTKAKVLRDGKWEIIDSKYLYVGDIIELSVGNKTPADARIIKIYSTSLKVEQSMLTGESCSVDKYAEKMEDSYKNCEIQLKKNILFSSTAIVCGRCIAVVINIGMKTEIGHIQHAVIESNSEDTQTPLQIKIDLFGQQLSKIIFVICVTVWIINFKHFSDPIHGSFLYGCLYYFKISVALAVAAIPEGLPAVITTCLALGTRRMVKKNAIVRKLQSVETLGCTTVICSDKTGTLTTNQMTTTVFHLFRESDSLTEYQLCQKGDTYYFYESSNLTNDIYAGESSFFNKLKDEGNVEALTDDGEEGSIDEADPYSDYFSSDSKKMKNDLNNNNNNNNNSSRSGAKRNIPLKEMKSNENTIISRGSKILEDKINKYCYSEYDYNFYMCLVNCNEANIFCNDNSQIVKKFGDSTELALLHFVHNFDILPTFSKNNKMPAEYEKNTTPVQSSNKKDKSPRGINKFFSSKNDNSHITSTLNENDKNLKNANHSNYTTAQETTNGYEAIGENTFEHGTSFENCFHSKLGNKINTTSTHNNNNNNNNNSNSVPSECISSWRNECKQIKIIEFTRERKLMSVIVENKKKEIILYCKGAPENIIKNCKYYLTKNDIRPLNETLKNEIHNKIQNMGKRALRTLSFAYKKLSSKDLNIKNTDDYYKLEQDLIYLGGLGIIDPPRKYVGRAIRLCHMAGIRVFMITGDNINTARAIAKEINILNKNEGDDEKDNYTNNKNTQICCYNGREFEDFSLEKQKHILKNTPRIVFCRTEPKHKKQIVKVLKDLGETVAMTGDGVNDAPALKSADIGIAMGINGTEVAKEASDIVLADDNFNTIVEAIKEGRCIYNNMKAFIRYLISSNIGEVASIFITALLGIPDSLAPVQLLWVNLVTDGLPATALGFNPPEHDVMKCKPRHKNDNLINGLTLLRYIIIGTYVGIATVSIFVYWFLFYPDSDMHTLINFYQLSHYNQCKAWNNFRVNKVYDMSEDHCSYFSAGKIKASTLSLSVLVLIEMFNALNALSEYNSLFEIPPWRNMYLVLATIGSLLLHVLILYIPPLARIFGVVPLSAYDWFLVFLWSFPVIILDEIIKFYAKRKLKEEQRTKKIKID
Kind of test: Yeast whole-cell assay, PfATP6 A623E mutant. Format: cell-based. The note with it: read-out: IC50 (mean ± SD). On the procedure:
Yeast transformations were performed using the method described by Gietz and Schiestl ([48]), and transformants were selected by an uracil auxotrophic marker. Transformations were confirmed by colony PCR. Both K667 and K667Δpdr5::HIS were transformed with the following plasmids: pUGpd plasmid as a vector-only control (derived from pRS316 [49]); br434 plasmid (derived from pRS316 [50]) containing the SERCA1a coding region from rabbit skeletal fast-twitch muscle (pbr434-SERCA1a); and pUGpd containing the yeast-optimized coding region of PfATP6 from Plasmodium falciparum (pUGpd-PfATP6). Site-directed mutagenesis was performed on the SERCA1a coding region to produce the mutation E255L in the protein. Mutations were also introduced into the PfATP6 coding region to produce mutations L263E, A623E, and S769N and the double mutation A623E/S769N ([13]).
The screening assay used here was developed from the protocol used by Pulcini et al. ([13]). […] The optimal calcium concentration was periodically monitored and, if necessary, adjusted using a calcium concentration range of 10 to 30 mM. […] The yeast growth was estimated from the absorbance at 620 nm in a Tecan plate reader. […] The data collected were analyzed using GraphPad Prism v9.0 (GraphPad software, San Diego, CA, U.S.A).

A further test has as its target PfATP6 (Plasmodium falciparum, UniProt Q08853). Kind of test: Yeast whole-cell growth inhibition (functional rescue) assay, K667[PfATP6]. Format: cell-based. Details: pUGpd containing the yeast-optimized coding region of PfATP6 from Plasmodium falciparum; expressed in transfected cells; host or cells: Saccharomyces cerevisiae K667 and K667Δpdr5::HIS. How it is done:
The screening assay used here was developed from the protocol used by Pulcini et al. ([13]). A single colony of the yeast strain to be screened was picked and grown in 5 mL of selective medium until stationary phase was reached. The culture was diluted 100-fold in ampicillin-supplemented yeast extract-peptone-dextrose (YPD) medium to an OD at 620 nm (OD620) equivalent to that of lag phase. YPD medium was supplemented with an appropriate concentration of calcium, depending on the transformed strain. […] The optimal calcium concentration was periodically monitored and, if necessary, adjusted using a calcium concentration range of 10 to 30 mM. A final volume of 200 μL of the yeast culture was added to each well of a 96-well plate, with 5 technical replicates included per inhibitor. All inhibitors were dissolved in dimethyl sulfoxide (DMSO) unless otherwise stated. […] The 96-well plates were incubated at 30°C for 42 h. The yeast growth was estimated from the absorbance at 620 nm in a Tecan plate reader. Growth was normalized with the no-drug control to present data as percent growth. The data collected were analyzed using GraphPad Prism v9.0 (GraphPad software, San Diego, CA, U.S.A).

Our source for the IC50 values is paper PMC9112895, “Selective Inhibition of Plasmodium falciparum ATPase 6 by Artemisinins and Identification of New Classes of Inhibitors after Expression in Yeast” (Antimicrobial Agents and Chemotherapy, 2022).

Sequence of PfATP6 (Q08853 whole entry): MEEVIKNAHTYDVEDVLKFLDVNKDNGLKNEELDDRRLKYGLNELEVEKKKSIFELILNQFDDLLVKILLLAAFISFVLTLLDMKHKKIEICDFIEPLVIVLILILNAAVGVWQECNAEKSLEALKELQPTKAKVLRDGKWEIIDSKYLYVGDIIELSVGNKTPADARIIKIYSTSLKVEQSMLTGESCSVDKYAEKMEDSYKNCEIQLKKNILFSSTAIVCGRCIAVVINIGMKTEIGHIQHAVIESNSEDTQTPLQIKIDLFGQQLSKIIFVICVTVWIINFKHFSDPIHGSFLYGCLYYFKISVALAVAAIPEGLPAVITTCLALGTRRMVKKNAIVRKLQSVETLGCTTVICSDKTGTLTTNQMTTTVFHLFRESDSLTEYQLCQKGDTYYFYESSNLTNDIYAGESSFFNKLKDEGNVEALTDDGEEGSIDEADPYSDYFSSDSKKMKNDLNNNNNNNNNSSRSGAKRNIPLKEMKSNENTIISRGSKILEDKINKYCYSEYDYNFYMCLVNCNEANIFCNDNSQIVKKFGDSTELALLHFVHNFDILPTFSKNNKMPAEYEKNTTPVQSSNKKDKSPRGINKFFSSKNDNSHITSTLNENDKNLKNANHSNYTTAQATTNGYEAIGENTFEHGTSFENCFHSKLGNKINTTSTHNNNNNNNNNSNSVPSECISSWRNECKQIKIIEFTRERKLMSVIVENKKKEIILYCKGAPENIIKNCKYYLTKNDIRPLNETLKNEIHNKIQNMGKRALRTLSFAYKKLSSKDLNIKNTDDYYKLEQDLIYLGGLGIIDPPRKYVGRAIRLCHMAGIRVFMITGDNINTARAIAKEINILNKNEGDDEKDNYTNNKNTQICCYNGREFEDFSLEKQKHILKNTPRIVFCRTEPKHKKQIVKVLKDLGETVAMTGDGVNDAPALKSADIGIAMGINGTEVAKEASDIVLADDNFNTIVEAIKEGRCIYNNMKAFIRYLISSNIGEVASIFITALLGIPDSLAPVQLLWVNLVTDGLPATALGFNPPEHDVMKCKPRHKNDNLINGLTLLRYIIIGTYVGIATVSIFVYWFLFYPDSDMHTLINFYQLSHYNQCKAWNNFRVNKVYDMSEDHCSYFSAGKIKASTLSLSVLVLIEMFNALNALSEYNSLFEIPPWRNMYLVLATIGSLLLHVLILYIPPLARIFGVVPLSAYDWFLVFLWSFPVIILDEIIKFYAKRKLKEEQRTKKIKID

As usually defined, the IC50 is the concentration needed to halve the response being measured. With `CC(=O)C1=C(O)[C@@H]2[C@H]3c4c[nH]c5cccc(c45)C[C@H]3C(C)(C)N2C1=O` [CPA, cyclopiazonic acid], the IC50 turned out to be 5.86 µM on A623E PfATP6 and 11.6 µM on PfATP6.
